Source: US11219619B2, “Therapeutic agent for hepatocellular carcinoma” (Eisai R&D Management Co., Ltd., priority 2018, dated 2022)

What was measured:
[1] = test system: Human-derived hepatocellular carcinoma cell line Hep3B2.1-7; experiment: Antitumor action against human hepatocellular carcinoma cell line Hep3B2.1-7 transplanted subcutaneously in nude mice; format: in vivo; settings: Hep3B2.1-7 xenograft
Description: (§1) Five nude mice (CAnN.Cg-Foxnlnu/CrlCrlj, female, CHARLES RIVER LABORATORIES JAPAN, INC.) were used in each group, and the antitumor effect in a case where compound A was administered was evaluated.
(§2) Human-derived hepatocellular carcinoma cell line Hep3B2.1-7 (obtained from ATCC) cells were suspended in a Hank's Balanced Salt Solution (HBSS) so that the concentration of the cells was 4×10^7 cells/mL. Into the suspension, Matrigel™ Matrix (Becton, Dickinson and Company, Japan) in the same volume as that of the suspension was added, and the obtained mixture was sufficiently mixed. The mixture in an amount of 0.1 mL was transplanted into the subcutaneous part in the right flank of each mouse, and the mouse was subjected to the antitumor effect evaluation.
(§3) On 19 days after the transplantation, the longest diameter and the short axis of the tumor were measured with an electronic digital caliper (Digimatic™ Caliper, Mitutoyo Corporation). The mice were divided into groups so that the average values of the tumor volumes in the respective groups were substantially equal to each other. In addition, the tumor volume was calculated in accordance with the following equation. Tumor volume (mm^3)=longest diameter (mm)×short axis (mm)×short axis (mm)/2
Compound A was dissolved in purified water so that the concentration of compound A was 5 mg/mL.
(§4) Compound A was administered to each of the mice in the respective groups at a dose of 100 mg/kg once daily for 5 days. After that, compound A was withdrawn for 2 days, and then administered orally for 4 days. In this regard, the volume to be administered was set to 20 mL/kg, and to the control group, purified water in the same volume was administered.

Li-7 = experiment: Proliferation of hepatocellular carcinoma cell line Li-7 (CellTiter Glo-2.0); format: cell-based; settings: Homo sapiens, 144 h; Li-7, cultured for 6 days, 10% FBS
Description: (§5) As the human hepatocellular carcinoma cell line, SNU-398, Li-7, Hep3B2.1-7, and HuH-7 were used. In this regard, SNU-398, and Hep3B2.1-7 were obtained from American Type Culture Collection (ATCC), Li-7 was obtained from Cell Resource Center for Biomedical Research, Institute of Development, Aging and Cancer, Tohoku University, and HuH-7 was obtained from JCRB Cell Bank, respectively.
(§6) For each cell line, maintenance culture was performed by using the following medium.
(§7) An RPMI-1640 medium (Wako Pure Chemical Industries, Ltd.) containing 10% fetal bovine serum (FBS) and penicillin/streptomycin […]
(§8) The number of cells in each well after the culture was calculated by measuring the intracellular ATP level with the emission intensity using CellTiter Glo-2.0 (Promega Corporation, catalog number: G9243).
(§9) CellTiter Glo-2.0 was added in an amount of 50 μL into each well, and the mixture was mixed for 10 minutes with a plate mixer. After that, the mixture was allowed to react at room temperature for 10 minutes, and then the luminescence was measured with Multilabel Reader (ARVO X4, PerkinElmer, Inc.) The luminescence value ratio in the presence of a compound A was determined, assuming that the luminescence value in a case where Compound A had not added was set to 100% and the luminescence value in a well where cells had not been present was set to 0%. […]

SNU-398 = experiment: Proliferation of hepatocellular carcinoma cell line SNU-398 (CellTiter Glo-2.0); format: cell-based; settings: Homo sapiens, 144 h; SNU-398, cultured for 6 days, 10% FBS
Description: as §5, §6, §7, §8, §9

[2] = test system: Human-derived hepatocellular carcinoma cell line HuH-7; experiment: Antitumor action against human hepatocellular carcinoma cell line HuH-7 transplanted subcutaneously in nude mice; format: in vivo; settings: HuH-7 xenograft
Description: as §1
as §2, with “HuH-7” for “Hep3B2.1-7”, “JCRB Cell Bank)” for “ATCC)”, “DMEM medium (Wako Pure Chemical Industries, Ltd.) containing 10% bovine serum” for “Hank's Balanced Salt Solution (HBSS)”, “8.0×10^7” for “4×10^7”
as §3, with “11” for “19”, “nearly” for “substantially”
Compound A was dissolved in purified water so that the concentration of compound A was 2.5 mg/mL.
as §4, with “50” for “100”, “3” for “4”

HuH-7 = experiment: Proliferation of hepatocellular carcinoma cell line HuH-7 (CellTiter Glo-2.0); format: cell-based; settings: Homo sapiens, 144 h; HuH-7, cultured for 6 days, 10% FBS
Description: as §5, §6
A DMEM-low glucose medium (Wako Pure Chemical Industries, Ltd.) containing 10% FBS and penicillin/streptomycin […]
as §8, §9

[3] = test system: Human-derived hepatocellular carcinoma cell line SNU-398; experiment: Antitumor action against human hepatocellular carcinoma cell line SNU-398 transplanted subcutaneously in nude mice; format: in vivo; settings: SNU-398 xenograft
Description: as §1
as §2, with “SNU-398” for “Hep3B2.1-7”, “HBSS” for “Hank's Balanced Salt Solution (HBSS)”, “5×10^7” for “4×10^7”
as §3, with “9” for “19”, “nearly” for “substantially”
Compound A was dissolved in purified water so that the concentration of compound A was […] or 2.5 mg/mL.
Compound A was administered orally to each of the mice in the respective groups at a dose of 25 mg/kg or 50 mg/kg once daily for 11 days. In this regard, the volume to be administered was set to 20 mL/kg. The control group was untreated.

Hep3B2.1-7 = experiment: Proliferation of hepatocellular carcinoma cell line Hep3B2.1-7 (CellTiter Glo-2.0); format: cell-based; settings: Homo sapiens, 144 h; Hep3B2.1-7, cultured for 6 days, 10% FBS
Description: as §5, §6
An EMEM medium (Wako Pure Chemical Industries, Ltd.) containing 10% FBS and penicillin/streptomycin […]
as §8, §9

[4] = Day 0 (baseline), 50 mg/kg group

- IC50 (Li-7): 63 nM
- IC50 (SNU-398): 26 nM
- IC50 (HuH-7): 249 nM
- IC50 (Hep3B2.1-7): 77 nM
Structure (SMILES): CNC(=O)n1ccc2cc(Oc3ccnc(NC(=O)c4ccc(C5CCN(CCO)CC5)cc4)c3)c(OCCOC)cc21 [Compound A, 5-((2-(4-(1-(2-hydroxyethyl)piperidin-4-yl)benzamide)pyridin-4-yl)oxy)-6-(2-methoxyethoxy)-N-methyl-1H-indole-1-carboxamide sesquisuccinate]
- Tumor volume ([1]; Day 0 (baseline), 100 mg/kg group): 417.4 mm^3
- Tumor volume ([1]; Day 3, 100 mg/kg once daily, oral): 504.0 mm^3
- Tumor volume ([1]; Day 7, 100 mg/kg once daily for 5 days, withdrawn 2 days): 630.4 mm^3
- Tumor volume ([1]; Day 11, 100 mg/kg once daily for 5 days, withdrawn 2 days, then 4 days, oral): 862.3 mm^3
- Tumor volume [2, 4]: 148.1 mm^3
- Tumor volume ([2]; Day 3, 50 mg/kg once daily, oral): 409.2 mm^3
- Tumor volume ([2]; Day 7, 50 mg/kg once daily for 5 days, withdrawn 2 days): 939.9 mm^3
- Tumor volume ([2]; Day 10, 50 mg/kg once daily for 5 days, withdrawn 2 days, then 3 days, oral): 1400.9 mm^3
- Increase in the tumor volume ([3]; 25 mg/kg or 50 mg/kg once daily for 11 days, oral): suppressed in a dose-dependent manner
- Tumor volume ([3]; Day 0 (baseline), 25 mg/kg group): 154.5 mm^3
- Tumor volume [3, 4]: 153.9 mm^3
- Tumor volume ([3]; Day 4, 25 mg/kg once daily, oral): 516.4 mm^3
- Tumor volume ([3]; Day 4, 50 mg/kg once daily, oral): 443.2 mm^3
- Tumor volume ([3]; Day 7, 25 mg/kg once daily, oral): 942.2 mm^3
- Tumor volume ([3]; Day 7, 50 mg/kg once daily, oral): 779.0 mm^3
- Tumor volume ([3]; Day 11, 25 mg/kg once daily for 11 days, oral): 1280.1 mm^3
- Tumor volume ([3]; Day 11, 50 mg/kg once daily for 11 days, oral): 1066.1 mm^3
